SMILES strings stand for the structures. Activity calls are given as the source filed them. The calls are words filed in the database; no cut-off is given here.

In one test the test system is SNB-75. Put plainly: Cytotoxicity against human SNB75 assessed as cell growth at 10 uM after 48 hrs by SRB assay. It is filed as functional. The following applies: SNB-75, 48 h, read-out: Activity. (In general: The SRB assay estimates cell density from bound dye.)
For the next test, the system named is Pichia membranifaciens. Put plainly: Antifungal activity against Pichia membranifaciens at 10 mg/ml after 48 hrs by disc diffusion method. It is filed as functional, organism-based. For orientation: In agar diffusion tests the substance spreads into inoculated agar from a disc or well.
In the next test the test system is OVCAR-8. As to the kind of experiment: Cytotoxicity against human OVCAR8 assessed as cell growth at 10 uM after 48 hrs by SRB assay. It is filed as functional. Particulars: OVCAR-8, 48 h, read-out: Activity.
In the next test the test system is Photorhabdus luminescens. Put plainly: Antibacterial activity against Photorhabdus luminescens at 10 mg/ml after 24 hrs by disc diffusion method. Type of test: functional, organism-based.
The subject of a further test is NCI-H322M. Put plainly: Cytotoxicity against human NCI-H322M assessed as cell growth at 10 uM after 48 hrs by SRB assay. The following applies: read-out: Activity. It is filed as functional.
For another test, the system named is Kluyveromyces marxianus. As to the kind of experiment: Antifungal activity against Kluyveromyces marxianus at 10 mg/ml after 48 hrs by disc diffusion method. Type of test: functional, organism-based.
Another test deals with SF-539. As to the kind of experiment: Cytotoxicity against human SF539 assessed as cell growth at 10 uM after 48 hrs by SRB assay. Type of test: functional. Particulars: SF-539, 48 h, read-out: Activity.
The subject of another test is SK-MEL-28. As to the kind of experiment: Cytotoxicity against human SK-MEL-28 assessed as cell growth at 10 uM after 48 hrs by SRB assay. Particulars: SK-MEL-28, 48 h, read-out: Activity. It is filed as functional.
The test system of another test is IGROV-1. As to the kind of experiment: Cytotoxicity against human IGROV1 assessed as cell growth at 10 uM after 48 hrs by SRB assay. The following applies: IGROV-1, 48 h, read-out: Activity. Type of test: functional.

As to `CC(C(=O)NN1C(=O)CSC1c1ccc(C(F)(F)F)cc1)c1ccc(-c2ccccc2)c(F)c1` (centres undefined), the growth at 10 µM amounted to 43% in the test with SNB-75; 86.5% with OVCAR-8; 76.9% in the test on NCI-H322M; 63% in the test on SF-539; 99.9% with SK-MEL-28; 75.5% in the test on IGROV-1. Further, the result in the test with Pichia membranifaciens, with Photorhabdus luminescens and in the test with Kluyveromyces marxianus was inactive.

These data come from ChEMBL document CHEMBL3046898, “Synthesis and characterization of flurbiprofen hydrazide derivatives as potential anti-HCV, anticancer and antimicrobial agents” (2013).
